Data as given in PubChem BioAssay (NCI).
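Exposure lasted 48 hours, with cells grown in 96-well plates and compounds tested at five concentrations. Abbreviation: GI50, concentration required for 50% inhibition of growth. TGI is the concentration that stops growth completely.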

Tests used:
Assay in all cases: inhibition of tumour cell growth, NCI panel, 48 h
[1] = test system: SF-268 CNS
[2] = test system: A498 renal
[3] = test system: HS 578T breast
[4] = test system: RPMI-8226 leukemia
[5] = test system: OVCAR-8 ovarian
[6] = test system: TK-10 renal
[7] = test system: SK-OV-3 ovarian
[8] = test system: IGROV1 ovarian
[9] = test system: UACC-257 melanoma
[10] = test system: HT29 colon

Compound | TGI [1] [µM] | TGI [2] [µM] | TGI [3] [µM] | TGI [4] [µM] | TGI [5] [µM] | TGI [6] [µM] | TGI [7] [µM] | TGI [8] [µM] | TGI [9] [µM] | TGI [10] [µM] | GI50 [1] [µM] | GI50 [2] [µM] | GI50 [3] [µM] | GI50 [4] [µM] | GI50 [5] [µM] | GI50 [6] [µM] | GI50 [7] [µM] | GI50 [8] [µM] | GI50 [9] [µM] | GI50 [10] [µM]
COC1=C(C)C(=O)c2c(c(COC(N)=O)c3n2CC(OC(C)=O)C3OC(C)=O)C1=O (centres undefined) | 0.674 | 1.34 | 1.09 | 1.36 | 0.373 | 1.56 | 1.57 | 0.402 | 0.375 | 0.25 | – | – | – | – | – | – | – | – | – | –
CSc1n[nH]c(N)c1C(=O)Nc1ccccc1 | > 100 | > 100 | > 100 | > 100 | > 100 | > 100 | > 100 | > 100 | > 100 | > 100 | – | – | – | – | – | – | – | – | – | –
CN(C)CC1CCC(CN(C)C)C1=O (centres undefined) | 42.4 | > 58.9 | 10.2 | 3.33 | 10.3 | 28.2 | 30.6 | 15.4 | 17.6 | 16.2 | – | – | – | – | – | – | – | – | – | –
C[n+]1c(-c2ccc(/C=C/C=N\NC(=O)c3ccc(C(=O)N/N=C\C=C\c4ccc(-c5cn6ccccc6[n+]5C)cc4)cc3)cc2)cn2ccccc21 | > 100 | > 100 | > 100 | > 84.6 | > 100 | > 100 | > 100 | > 100 | > 100 | > 100 | – | – | – | – | – | – | – | – | – | –
COc1cc2c(cc1Cc1c(F)cccc1Cl)nc(-c1c(F)cccc1Cl)n2Cc1c(F)cccc1Cl | > 100 | 84 | > 100 | > 100 | > 100 | > 100 | 70 | > 100 | > 100 | > 100 | – | – | – | – | – | – | – | – | – | –
COc1ccc(CC2COc3cc(O)cc(O)c3C2=O)cc1O (centres undefined) | > 100 | > 100 | > 100 | 28.5 | > 100 | > 100 | 38.6 | > 100 | > 100 | 27.5 | – | – | – | – | – | – | – | – | – | –
COc1ccc(CN2C3CC2CN(c2ccc(-c4cc(OCC(C)(C)O)cn5ncc(C#N)c45)cn2)C3)cn1 | > 100 | 3.7 | 7.12 | > 100 | > 100 | > 100 | > 100 | > 100 | > 100 | > 100 | 4.6 | 0.51 | 2.01 | > 100 | 13.2 | 10.5 | 5.64 | 4.17 | > 100 | 8.09
CC(=O)OC1C(COC(=O)c2ccccc2)OC(Nc2ncc(-c3ccc(Br)cc3)s2)C(OC(=O)c2ccccc2)C1OC(=O)c1ccccc1 (centres undefined) | > 100 | – | > 100 | > 100 | > 100 | > 100 | > 100 | > 100 | > 100 | > 100 | – | – | – | – | – | – | – | – | – | –
COc1ccc(C2c3cc4c(cc3OC(N3CCOCC3)C2C)OCO4)c(OC)c1OC (centres undefined) | 79.8 | – | 19.2 | 39.8 | > 100 | 70.5 | – | 70.7 | 82.2 | 52.2 | – | – | – | – | – | – | – | – | – | –
COc1cc(NC(C)=O)ccc1C(=O)NN1C(=O)/C(=C/c2ccco2)N=C1c1ccccc1 | > 50 | > 50 | > 50 | 31.8 | > 50 | – | > 50 | > 50 | – | > 50 | – | – | – | – | – | – | – | – | – | –
O=c1cc(N2CCCC2)[nH]c(=O)n1-c1ccccc1 | – | – | – | > 100 | > 100 | > 100 | – | > 100 | > 100 | > 100 | – | – | – | – | – | – | – | – | – | –
Cc1ccc(/C=C2\Cc3c(C)cc(C)cc3C2=O)c(C(=O)O)c1 | > 100 | 84.1 | > 100 | 53.1 | > 100 | > 100 | – | > 100 | > 100 | > 100 | – | – | – | – | – | – | – | – | – | –
Cc1cnc2c(c1)C(=O)C1=C(C2=O)C2OC(=O)CC2OC1(C)C (centres undefined) | 0.623 | 3.75 | 0.693 | – | 2.19 | 1.95 | 2.77 | 0.424 | 0.469 | 1.25 | – | – | – | – | – | – | – | – | – | –
COC(=O)C1=Nc2c(C)nn(-c3ccccc3)c2N=C(c2ccccc2)C1 | > 10 | – | > 10 | > 10 | > 10 | > 10 | > 10 | > 10 | > 10 | > 10 | – | – | – | – | – | – | – | – | – | –
CCOC(=O)C1CCC(=O)N1C(=O)c1ccccc1 (centres undefined) | > 100 | > 100 | > 100 | > 100 | > 100 | > 100 | – | > 100 | > 100 | > 100 | – | – | – | – | – | – | – | – | – | –
O=C(N/N=C/c1ccc(Br)cc1)N/N=C/c1ccc(Br)cc1 | 24 | – | 10.8 | 40.1 | 19.8 | 5.39 | 7.96 | 27.7 | 40.2 | 26 | – | – | – | – | – | – | – | – | – | –
CC12CCCC3(CC(=O)C(C)(C)C3C(=O)C1)C2 (centres undefined) | > 100 | – | > 100 | > 100 | > 100 | > 100 | > 100 | > 100 | > 100 | > 100 | – | – | – | – | – | – | – | – | – | –
O=C1CSC2=NC3=C(COC/C3=C\c3ccc(Br)cc3)C(c3ccc(Br)cc3)N12 (centres undefined) | > 100 | > 100 | > 100 | > 100 | > 100 | > 100 | > 100 | > 100 | > 100 | – | – | – | – | – | – | – | – | – | – | –
COc1ccc(COCC[C@H](C)OC2OC(CO[Si](C)(C)C(C)(C)C)C(OC(=O)CCCN=[N+]=[N-])C(OC(=O)CCCN=[N+]=[N-])C2OC(=O)CCCN=[N+]=[N-])cc1 (some centres undefined) | > 100 | > 100 | > 100 | – | 75.8 | > 100 | > 100 | > 100 | > 100 | 62.7 | – | – | – | – | – | – | – | – | – | –
COc1cc2ccc1OCc1cccc(n1)COc1ccc(cc1OC)C=Nc1ccc(cc1)N=C2 | > 100 | > 100 | > 100 | – | > 100 | > 100 | > 100 | > 100 | > 100 | > 100 | – | – | – | – | – | – | – | – | – | –
CN(C)CCC(=O)/C=C\c1ccccc1 | – | 39.5 | – | 34.4 | 37 | 32.9 | – | 62 | 31.5 | 39.2 | – | – | – | – | – | – | – | – | – | –
